From US20080208071A1, “Measurement of Gastric Acid Secretion” (THE LEEDS TEACHING HOSPITALS NHS TRUST, priority 2005, published 2008)

Columns and labels:
gastric acid secretion [1] = assay: 13C calcium carbonate breath test, Example 1 (250 mg every 15 minutes over 4 hours); conditions: human volunteer; oral 250 mg calcium carbonate (10 atom % 13C) every 15 minutes over 4 hours; two experiments; FIG. 1
Procedure: At 10 minute intervals, samples of exhaled (expired) air were obtained from the subject by breathing into a suitable collection vessel such as a test tube. The expired air was subjected to mass spectrometry to measure the ratio of ^13C to ^12C in the exhaled carbon dioxide.
In a second experiment the subject was treated with omeprazole 20 mg daily for two weeks and the experiment repeated twice under otherwise identical conditions.
The subject then did two further experiments again under otherwise identical conditions but now including a daily dosage of 40 mg of omeprazole.

gastric acid secretion [2] = assay: 13C calcium carbonate breath test, Example 2 (initial 2 g, then 500 mg every 5 minutes over 3 hours); conditions: human volunteer; oral 2 g then 500 mg calcium carbonate (10 atom % 13C) every 5 minutes over 3 hours; two experiments; FIG. 4

In the case of `O=C([O-])[O-].[Ca+2]` [^13C labelled calcium carbonate, calcium carbonate], the “time at which the rise in 13C in exhaled carbon dioxide begins to plateau” value (gastric acid secretion [1]) is reported as “about 120 minutes” and the “time at which the rise in 13C in exhaled carbon dioxide begins to plateau” value (gastric acid secretion [2]) is reported as “about 120 minutes”.
